Assay results published in the supplement of paper PMC10307832.

Tests used:
Assay in all cases: relative viability (nuclei count vs DMSO), 5 days (fraction); higher = more cells survive
Ponatinib = compound: Cc1ccc(C(=O)Nc2ccc(CN3CCN(C)CC3)c(C(F)(F)F)c2)cc1C#Cc1cnc2cccnn12 [Ponatinib]
How it was run: (§1)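 After an overnight hold at 37 °C, lung cancer cell lines in 1536-well plates were pinned with five library-drug doses (not always all listed), each √10 from the next, on vehicle-anchored plates. The cells stayed 5 days without fresh medium, then a one-step fix, permeabilisation and Hoechst stain preceded 4× imaging and MetaXpress nuclear counts. A plate passed only with control CV under 25% and at least one doubling. Viability is the median, over plates, of treated-well nuclei relative to vehicle-well nuclei.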

Pazopanib = compound: Cc1ccc(Nc2nccc(N(C)c3ccc4c(C)n(C)nc4c3)n2)cc1S(N)(=O)=O [Pazopanib]
How it was run: as §1

Ponatinib + Trametinib = compound: Cc1ccc(C(=O)Nc2ccc(CN3CCN(C)CC3)c(C(F)(F)F)c2)cc1C#Cc1cnc2cccnn12 [Ponatinib] + CC(=O)Nc1cccc(-n2c(=O)n(C3CC3)c(=O)c3c(Nc4ccc(I)cc4F)n(C)c(=O)c(C)c32)c1 [Trametinib] (partner 0.02 µM)
How it was run: (§2)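 Relative viability equals treated-well nuclei counts divided by vehicle-well nuclei counts. Counts came from 4× images of lung cancer cell lines grown in 1536-well plates for 5 days after pin-tool dosing on the day after seeding. Dosing used one drug alone or a fixed anchor-drug dose plus five library-drug doses (not always all listed) in √10 steps, and values are medians of duplicate plates.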

Pazopanib + Navitoclax = compound: Cc1ccc(Nc2nccc(N(C)c3ccc4c(C)n(C)nc4c3)n2)cc1S(N)(=O)=O [Pazopanib] + CC1(C)CCC(c2ccc(Cl)cc2)=C(CN2CCN(c3ccc(C(=O)NS(=O)(=O)c4ccc(N[C@H](CCN5CCOCC5)CSc5ccccc5)c(S(=O)(=O)C(F)(F)F)c4)cc3)CC2)C1 [Navitoclax] (partner 0.5 µM)
How it was run: as §2

| Cell Line | relative viability (Ponatinib; 0.002 µM) | relative viability (Ponatinib; 0.006325 µM) | relative viability (Ponatinib; 0.06325 µM) | relative viability (Ponatinib; 0.2 µM) | relative viability (Pazopanib; 0.01 µM) | relative viability (Pazopanib; 0.03162 µM) | relative viability (Pazopanib; 0.1 µM) | relative viability (Pazopanib; 0.3162 µM) | relative viability (Pazopanib; 1 µM) | relative viability (Ponatinib + Trametinib; first compound 0.002 µM) | relative viability (Ponatinib + Trametinib; first compound 0.006325 µM) | relative viability (Ponatinib + Trametinib; first compound 0.06325 µM) | relative viability (Ponatinib + Trametinib; first compound 0.2 µM) | relative viability (Pazopanib + Navitoclax; first compound 0.01 µM) | relative viability (Pazopanib + Navitoclax; first compound 0.03162 µM) | relative viability (Pazopanib + Navitoclax; first compound 0.1 µM) | relative viability (Pazopanib + Navitoclax; first compound 0.3162 µM) | relative viability (Pazopanib + Navitoclax; first compound 1 µM) |
| --- | --- | --- | --- | --- | --- | --- | --- | --- | --- | --- | --- | --- | --- | --- | --- | --- | --- | --- |
| LC-2-ad | 0.85 | 0.885 | 0.785 | 0.768 | 1 | 0.99 | 1.01 | 1.07 | 1.07 | 0.809 | 0.822 | 0.62 | 0.533 | 0.411 | 0.48 | 0.588 | 0.485 | 0.335 |
| COR-L 105 | 1.01 | 0.933 | 1.18 | 1.05 | 1.08 | 0.91 | 0.95 | 1.1 | 1.14 | 0.429 | 0.479 | 0.473 | 0.457 | 0.891 | 0.698 | 0.787 | 0.732 | 0.773 |
| NCI-H1355 | 0.923 | 1.02 | 1.11 | 1 | 0.753 | 0.952 | 0.95 | 1 | 1.06 | 0.378 | 0.429 | 0.464 | 0.47 |  | 0.899 | 1.09 | 1.07 | 0.979 |
| H3255 | 0.867 | 0.97 | 0.984 | 0.908 | 0.925 | 0.965 | 0.869 | 0.998 | 1.01 | 0.62 | 0.655 | 0.607 | 0.554 | 0.488 | 0.523 | 0.548 | 0.536 | 0.572 |
| NCI-H1993 | 1.02 | 1.03 | 1.2 | 1.05 |  | 0.791 | 0.936 | 0.983 | 0.86 | 0.539 | 0.506 | 0.64 | 0.572 | 0.734 | 0.735 | 0.988 | 1.01 | 0.889 |
| NCI-H1734 | 0.938 | 0.974 | 1 | 0.871 | 0.776 | 1.03 | 1.11 | 1.13 | 1.12 | 0.63 | 0.658 | 0.527 | 0.505 | 0.796 | 0.795 | 0.854 | 0.875 | 0.901 |
| HOP-62 | 0.921 | 0.86 | 0.912 | 0.857 | 0.963 | 1 | 1.02 | 1.07 | 0.958 | 0.417 | 0.403 | 0.374 | 0.338 | 1.13 | 1.08 | 1.01 | 1.03 | 0.944 |
| LOU-NH91 | 0.957 | 1.03 | 1.04 | 0.938 | 0.903 | 0.955 | 0.949 | 1.11 | 1.01 | 0.803 | 0.807 | 0.886 | 0.764 | 0.718 | 0.701 | 0.732 | 0.843 | 0.766 |
| ChaGo-K-1 | 0.872 | 0.988 | 1 | 0.88 | 0.927 | 1.01 | 1.04 | 0.99 | 0.978 | 0.863 | 0.907 | 0.914 | 0.815 | 0.935 | 1.07 | 0.997 | 0.792 | 1.06 |
| NCI-H2228 | 0.828 | 0.991 | 1.07 | 0.895 | 0.964 | 1 | 1.03 | 0.973 | 1.04 | 0.546 | 0.656 | 0.495 | 0.547 | 0.847 | 1.1 | 1.03 | 0.98 | 0.913 |
| PC-3 [JPC-3] | 0.932 | 1.05 | 1.15 | 1.03 | 1.13 | 1.05 | 1.09 | 1.02 | 1.01 |  | 0.769 | 0.88 | 0.699 | 0.762 | 0.794 | 0.904 | 0.723 | 0.793 |
| NCI-H1437 | 0.945 | 0.983 | 1.01 | 0.926 | 1 | 0.972 | 0.971 | 0.976 | 1.06 | 0.413 | 0.496 | 0.741 | 0.613 | 1.11 | 1.06 | 1.07 | 0.985 | 1.08 |
| NCI-H520 | 0.774 | 0.921 | 0.832 | 0.628 | 0.858 | 1.01 | 1.01 | 1.1 | 1.11 | 0.597 | 0.623 | 0.435 | 0.285 |  | 1.18 | 0.955 | 1.05 | 0.98 |
| NCI-H1666 | 0.919 | 0.977 | 1.11 | 1.04 | 0.989 | 1 | 1.01 | 0.976 | 1.07 | 0.83 | 0.786 | 0.827 | 0.777 | 1.06 | 0.975 | 0.926 | 1.22 | 1.01 |
| NCI-H1651 | 0.982 | 1.02 | 1.08 | 0.929 | 0.917 | 1 | 1.01 | 0.956 | 1.01 | 0.825 | 0.827 | 0.918 | 0.809 | 1.1 | 1.16 | 1.17 | 1.12 | 1.16 |
| NCI-H1755 | 1.02 | 0.964 | 0.99 | 0.892 | 0.892 | 0.967 | 0.947 | 0.978 | 1.02 | 0.755 | 0.841 | 0.761 | 0.763 | 0.852 | 0.937 | 1.01 | 1 | 0.991 |
| NCI-H727 | 0.883 | 0.855 | 1.2 | 0.872 | 0.841 | 0.907 | 0.91 | 1 | 1.16 | 0.415 | 0.388 | 0.398 | 0.37 | 0.506 | 0.417 | 0.656 | 0.513 | 0.572 |
